Assay results published in patent US6329344A, “Derivatives of monosaccharides as cell adhesion inhibitors” (Ranbaxy Laboratories Limited, priority 1998, dated 2001).
Where two headings read alike, the source gives them in different places.

Tested on: murine contact hypersensitivity response
Experiment: Mouse Ear Swelling Test (MEST), DNFB contact hypersensitivity
Assay type: in vivo, Swiss albino mice
Settings: ear thickness 24 hours after challenge; for ED30 / ED40: Mus musculus, 24 h; for ED30: read-out: EC30 (ED30, dose for 30% inhibition of ear swelling); for ED40: read-out: EC40 (ED40, dose for 40% inhibition of ear swelling)
Source text: The in vitro cell adhesion assay was used to measure the effect of a test compound on adhesion of human T cell line (Jurkat J6) on surfaces coated with VCAM-1. The MEST assesses the ability of the experimental compounds to inhibit the delayed-type hypersensitivity response of sensitized mice against a potent allergen, 1,4-Dinitrofluoro benzene. These two assays are appropriate for screening compounds for two different activities. The cell adhesion assay determines the effect of compounds on the interaction of VLA4 molecules expressed on the surface of Jurkat cells with its counter-receptor, VCAM-1, immobilized on microtitre plate surface. Conversely, the MEST determines the potency of compounds to inhibit the murine contact hypersensitivity response induced by exposing mice to the potent allergen 1,4-Dinitrofluoro benzene. The Chisolm et al method was used in this respect (Chisolm et al, Eur. J. Immunology 1993;23:682).
We tested the efficacy of compounds synthesized in this invention to inhibit the act hypersensitivity in Swiss mice as follows:
20 to 25 gm female Swiss albino mice (animals procured from National Institute of Immunology, New Delhi, India and maintained in our Experimental Animal Facility) were anesthetized with anesthetic ether (Sisco Research Laboratories Ltd., India). A 2 cm^2 patch of dorsal skin was shaved using a hair clipper. The exposed skin was then dermabraded using No. 100 sandpaper gently. 25 μL freshly prepared 0.5% 1,4-Dinitrofluoro benzene in 4:1 (v/v) acetone:olive oil solution was then topically applied onto the dermabraded skin to encourage a mild inflammation reaction. Twenty-four hours after the initial sensitization, the mice were again sensitized with 25 μL freshly prepared 0.5% 1,4-Dinitrofluor benzene (DNFB) in 4:1 (v/v) acetone:olive oil solution on the same dermabraded site as before. The second sensitization was performed while restraining the non-anesthetized, conscious mouse.
2. Administration of Compound
On day 5, compounds were dissolved in an aqueous solvent (pyrogen-free water, alkaline water, or ethanol) and further diluted in pyrogen-free water to prepare appropriate doses. Solutions were administered by intravenous, subcutaneous or oral route.
3. Challenge and Measurement of Ear Thickness
Two hours following administration of the compounds, the animals were physically restrained and painted with 25 μL of freshly prepared 0.5% DNFB in 4:1 (v/v) acetone:olive oil solution on the right ear. The thickness of the right ear was measured using a Series 300 Odimeter (Dyer Gauge Inc, USA) at the time of challenge (0 hr), 4 hours and 24 hours after challenge while physically restraining the non-anesthetized mice. In a separate experiment, it was ascertained that 4:1 (v/v) acetone:olive oil vehicle has no effect on ear thickness.
4. Determination of Effective Concentration of the Compounds
Inhibition of the ear swelling was judged by comparison of treated groups with their negative control groups. Percent inhibition was calculated as: [formula]
STEST =Mean ear thickness in test group at 24 hours after challenge
STEST-zero =Mean ear thickness in test group at zero hours after challenge
SNC =Mean ear thickness in negative control group at 24 hours after challenge
SNC-zero =Mean ear thickness in negative control group at zero hours after challenge
The percentage inhibition of swelling obtained by the above calculation was plotted against log dose using the Graph Pad Prizm software and, from this plot, the log dose corresponding to 30% inhibition (log ED30) and 40% (log ED40) inhibition was determined.
Aqueous solutions of appropriate doses (1 μg/kg to 100 mg/kg) were administered by intravenous route 2 hrs before challenge and their effect on ear thickness was measured. Concentrations inhibiting ear swelling by 30% and 40% were determined and expressed as amount (ng, μg or mg) per Kg body weight.

[1] = I.V., amount per Kg body weight
[2] = S.C., amount per Kg body weight

For `CC(C)C[C@H](NC(=O)[C@@]12O[C@H]3COC(C)(C)O[C@H]3[C@@H]1OC(C)(C)O2)C(=O)N[C@@H](CC(=O)O)C(=O)N[C@H](C(=O)N1CCC[C@H]1C(=O)O)C(C)C` [Compound 122, 2,3; 4,6-Di-O-isopropylidene-1-carbonyl-L-Leucyl-α,L-Aspartyl-L-Valyl-LProline-α,L-xylo-2-hexulofuranosonic acid], the EC30 (ED30, dose for 30% inhibition of ear swelling) [1] was 8 mg/kg and the ED30 [1] was 12 mg/kg.
`CCCCCCCCCCCCO[C@@H]1[C@H]2OC(C)(C)O[C@H]2O[C@@H]1CNC(=O)Nc1ccc(CC(=O)O)cc1` [Compound 53, 1,2-O-isopropylidene-3-O-dodecyl-5-deoxy-5-N-{[4-(2-hydroxy-2-oxoethyl)phenyl]aminocarbonylamino}-α,D-xylofuranose] showed an ED30 [1] of 0.01 mg/kg, an ED40 [1] of 0.07 mg/kg and an ED30 (Oral) of 0.001 mg/kg. It also gave an ED30 [2] of 0.0005 mg/kg and an ED40 [2] of 0.01 mg/kg.
`CCCCCCCCCCCCO[C@H]1[C@H]2OC(C)(C)O[C@H]2O[C@@H]1CNC(=O)Nc1ccc(CC(=O)O)cc1` [Compound 76, 1,2-O-isopropylidene-3-O-dodecyl-5-deoxy-5-N-{[4-(2-hydroxy-2-oxoethyl)phenyl]aminocarbonylamino}-α,D-ribofuranose] was tested, and the ED30 (Oral) was 0.00029 mg/kg and the ED40 (Oral) was 0.0813 mg/kg.
